The record followed here is paper PMC11018795, “The regulatory relationship between NAMPT and PD-L1 in cancer and identification of a dual-targeting inhibitor” (EMBO Molecular Medicine, 2024).

For data set [1], the system named is pyruvate content of A549 cells. The experiment in a line: Pyruvate (PA) content, A549 cells with or without PBMC. The arrangement: unit not given beside the values. It counts as cell-based, human. The settings on record: listed as BM202. The text has this:
Supplement 44321_2024_51_MOESM3_ESM.zip/Fig-2-K-PA.xlsx, sheet "Sheet1" | column: A549

Data set [2] has as its system IFN-γ and TNF-α secretion, LLC cells co-cultured with T cells. Description: ELISA of IFN-γ and TNF-α, LLC cells under co-culture condition. It counts as cell-based, mouse. The arrangement: unit not given here. The settings on record: in vitro, listed as B202. (In general: ELISA stands for enzyme-linked immunosorbent assay.)
The test system of data set [3] is pyruvate content of A549 KO HIF-1α cells. Description: Pyruvate (PA) content, A549 KO HIF-1α cells with or without PBMC. It counts as cell-based, human. The arrangement: unit not given beside the values. The settings on record: listed as BM202. The text has this: Supplement 44321_2024_51_MOESM3_ESM.zip/Fig-2-K-PA.xlsx, sheet "Sheet1" | column: A549 KO HIF-1α
Data set [4] relates to glycolytic genes in A549 KO HIF-1α cells. The experiment in a line: RT-PCR of glycolytic genes, A549 KO HIF-1α cells co-cultured with PBMC. It counts as cell-based, human. The settings on record: A549 KO HIF-1α co-cultured with PBMC; listed as B202. The protocol: (§1) Total RNA was isolated using TRIzol reagent (Invitrogen, 15596026) according to the manufacturer's protocol. First-strand cDNA synthesis was performed using a RevertAid First Strand cDNA Synthesis Kit (Thermo Fisher, […]). Quantitative real-time PCR analysis was performed by mixing 10 μl SYBR, 0.4 μM forward primer, 0.4 μM reverse primer, 1 μl cDNA, and 8.2 μl distilled water per sample with Top Green qPCR SuperMix (Transgene, AQ601-04) by the manufacturer's protocols. GAPDH was used as an endogenous control. All qRT-PCRs were set up in triplicate using three biological replicates for each sample. Primer information is shown in Appendix Table S1.

Data set [5] concerns NAD+ content of A549 cells. Description: NAD+ content, A549 cells with or without PBMC. The arrangement: unit not given here. The settings on record: listed as BM202. It counts as cell-based, human. The method, then:
(§2) NAD^+ assays were performed to quantify the total NAD^+ content. NAD^+ assay was performed using the NAD/NADH Assay Kit (ab65348; Abcam) according to the manufacturer’s recommended protocol.

For data set [6], the system named is glycolytic genes in A549 cells. Description: RT-PCR of glycolytic genes, A549 cells co-cultured with PBMC. It counts as cell-based, human. Set-up: key to Aldoa mRNA level / Eno1 mRNA level / HK2 mRNA level / Glut1 mRNA level: relative mRNA level normalized to GAPDH (endogenous control). The settings on record: listed as B202. The method, then: as §1
Data set [7] has as its system pyruvate content of LLC cells. Description: Pyruvate (PA) content in LLC cells with or without T cells. The settings on record: listed as B202. It counts as cell-based, mouse. Set-up: unit not given beside the values. An excerpt: Supplement 44321_2024_51_MOESM3_ESM.zip/Fig-2-G.xlsx, sheet "Sheet1" | column: "-T cells; "+T cells
In data set [8] the test system is glycolytic genes in LLC cells. Description: RT-PCR of glycolytic genes in LLC cells with or without T cells. It counts as cell-based, mouse. The arrangement: key to HK2 mRNA level / Glut1 mRNA level / Aldoa mRNA level / Eno1 mRNA level: relative mRNA level normalized to GAPDH (endogenous control). The settings on record: listed as B202. The method, then: as §1
In data set [9] the test system is NAD+ content of LLC cells. The experiment in a line: NAD+ content in LLC cells with or without T cells. It counts as cell-based, mouse. The arrangement: unit not given here. The settings on record: listed as BM202. The method, then:
as §2

Data set [10] relates to NAD+ content of A549 KO HIF-1α cells. The experiment in a line: NAD+ content, A549 KO HIF-1α cells with or without PBMC. The settings on record: listed as BM202. Set-up: unit not given here. It counts as cell-based, human. The protocol:
as §2

Data set [11] relates to NAD+ content of LLC OE NAMPT/PD-L1 tumor tissue. The experiment in a line: NAD+ in tumor tissue, LLC OE NAMPT/PD-L1 mouse model. It counts as in vivo. The settings on record: 20 mg/kg; tumor tissue.
In data set [12] the test system is LLC OE NAMPT/PD-L1 tumors. Description: LLC OE NAMPT/PD-L1 tumor-bearing C57BL/6 mice. It counts as in vivo, mouse. The settings on record: 20 mg/kg i.p.; 14 days; Fig 7B.
Data set [13] deals with PD-L1 expression in A2780 and LLC cells. Description: PD-L1 expression (western blot, flow cytometry, qRT-PCR) in A2780 and LLC cells. The settings on record: 72 h. It counts as cell-based, human, mouse. The protocol: For surface marker detection, tumor single-cell suspensions and spleen lymphocytes were incubated at 4 °C for 30 min in PBS with 0.1% Fixable Viability Dye (eBioscience 65-0863-14). Cells were washed and incubated in staining buffer (PBS with 1% FBS) with surface marker antibodies, the dilution ratio of all flow antibodies was 1:200 (BioLegend, CD3-APC 100235, CD3-PE 100205, CD4-FITC 100405, CD8-APC 100711, CD8-PE 100707, CD45-APC 103112, PD-L1-PE 124307, adsorbed secondary antibody-APC, and CD69-PE 104511). The cells were then washed and resuspended in staining buffer for flow cytometry. For cytokine detection, tumor single-cell suspensions and spleen lymphocytes were incubated in RPMI-1640 with 10% FBS and 0.2% Cell Stimulation Cocktail (plus protein transport inhibitors) (eBioscience 00-4975-93) at 37 °C for 12 h. […] Flow cytometry was performed on ACEA NovoCyte, and the data were analyzed using NovoExpress. […]
Total RNA was isolated using TRIzol reagent (Invitrogen, 15596026) according to the manufacturer’s protocol. […] Quantitative real-time PCR analysis was performed by mixing 10 μl SYBR, 0.4 μM forward primer, 0.4 μM reverse primer, 1 μl cDNA, and 8.2 μl distilled water per sample with Top Green qPCR SuperMix (Transgene, AQ601-04) by the manufacturer’s protocols. […]

The subject of a further data set is A20 tumors. The experiment in a line: A20 tumor-bearing Balb/c mice. It counts as in vivo, mouse. The settings on record: A20 model; FK866 20 mg/kg, LZFPN-90 20 and 40 mg/kg i.p.
Data set [14] relates to NAD+ content of A2780 cells. The experiment in a line: NAD+ assay in A2780 cells. It counts as cell-based, human. The method, then: as §2

Several values for one entry are separate records, joined by “and”; a condition that tells them apart may be missing. Equal values may be shown once.

Turning to `COc1nc(OCc2cccc(-c3ccccc3)c2C)ccc1CNCCNC(C)=O` [BMS202], the “content of pyruvate (PA)” value in [1] (+PBMC) was 0.2451 and 0.2361 and 0.2328; in data set [1] (-PBMC), 0.1485 and 0.1357 and 0.1294; in data set [3] (+PBMC) it was 0.1117 and 0.1102 and 0.1239; in [3] (-PBMC) it was 0.09589 and 0.0979 and 0.1044; in data set [7] (+T Cells), 0.5383 and 0.5346 and 0.5309; in data set [7] (-T Cells), 0.3322 and 0.3345 and 0.3513. For the same molecule, the “IFN-γ (ELISA)” value in [2] is 155.867 and 141.57 and 156.336. The “TNF-α (ELISA)” value in data set [2] was 199.656 and 157.29 and 212.022. Moreover, the “Aldoa mRNA level” value is 0.4841 and 0.4127 and 0.7087 in [4]; 1.286 and 1.53 and 1.628 in [6]; 0.06048 and 0.109 and 0.06804 in data set [8] (-T Cells). For the same molecule, the “Eno1 mRNA level” value was 0.9159 and 1.082 and 0.8085 in data set [4]; 1.184 and 1.457 and 1.192 in data set [6]; 3.494 and 3.959 and 2.858 in data set [8] (+T Cells); 0.7778 and 1.3449 and 0.7359 in data set [8] (-T Cells). Further, the “HK2 mRNA level” value in [4] was 0.02498 and 0.01465 and 0.021; in data set [6], 4.691 and 5.816 and 5.352; in data set [8] (+T Cells), 2.644 and 2.833 and 1.744; in data set [8] (-T Cells) it was 1.261 and 1.177 and 0.9693. The “Pfk1 mRNA level” value in data set [4] was 0.7631 and 0.9395 and 1; in [6] it was 1.211 and 0.6057; in data set [8] (+T Cells), 5.686 and 6.904. Further, the “content of NAD+” value in [5] (+PBMC) was 8.982 and 8.901 and 8.955; in data set [5] (-PBMC), 11.875 and 11.7227 and 11.9827; in [9] (taken as +T cells by analogy with Fig 2G), 6.047 and 6.219 and 6.464; in [9] (taken as -T cells by analogy with Fig 2G) it was 11.761 and 12.9475 and 11.7876; in [10] (+PBMC), 10.2853 and 11.0822 and 11.211; in data set [10] (-PBMC) it was 12.9598 and 12.8438 and 11.842. Moreover, the “Glut1 mRNA level” value in [6] is 1.195 and 1.4406 and 1.289; in data set [8] (-T Cells), 0.3392 and 0.2003 and 0.2483.

Turning to `O=C(/C=C/c1cccnc1)NCCCCC1CCN(C(=O)c2ccccc2)CC1` [FK866, reference compound], the “NAD+ in 20 mg tissue” value in data set [11] is 98.7342 and 119.831 and 110.802. Moreover, the “TIR / tumor growth inhibition (TGI) rate at endpoint” value in data set [12] is recorded as 43.62%. The “effect on PD-L1 expression” value in data set [13] was “upregulated global and membrane PD-L1 expression”. Besides, the “effect on mouse organ or body weight” value in the data set with A20 tumors is given as “caused a reduction in the body weight of the mice”.

With `NC(=O)c1ccc[n+]([C@@H]2O[C@H](COP(=O)([O-])O)[C@@H](O)[C@H]2O)c1` [NMN, nicotinamide mononucleotide], the “Relative NAD+” value in data set [14] (NMN 1 μM added to LZFPN-90 (NMN 0 μM values equal those of 5 nM LZFPN-90)) is 79.1005 and 77.5282; in [14] (NMN 5 μM added to LZFPN-90) it was 81.63 and 81.9669; in [14] (NMN 10 μM added to LZFPN-90), 85.5982 and 82.7424; in data set [14] (NMN 20 μM added to LZFPN-90), 92.0905 and 93.6414; in [14] (NMN 40 μM added to LZFPN-90), 91.3204 and 94.481.

For the molecule `CC(NC(=O)c1ccccc1/N=C/c1c(O)ccc2ccccc12)c1ccccc1` (stereo not shown) [Sirtinol], the “effect on PD-L1 expression” value in [13] was “PD-L1 was upregulated at both the mRNA and protein levels”.
